{"source": "patent EP1764134B1", "about": "“Purine derivatives linked to arylpiperazines” (Spectrum Pharmaceuticals, Inc., priority 2001, dated 2003)", "key": {"mice": {"test_system": "mice", "test": "Conditioned avoidance testing (CAR, active avoidance)", "assay_type": "in vivo", "conditions": "S.C. 20 minutes before the test session", "method": "Training: Consists of 20 trials with variable inter-trial intervals (Trained to 80% Avoidance Criteria). After a one-minute acclimation period, the house light and an acoustic 90dB tone (conditioned stimuli) are presented. A response (crossing to dark compartment) within 5 seconds ends the trial and trial is recorded as avoidance response (CAR). […] To avoid shock, animals learn to move from the lighted side of the chamber to the dark side when the cue is presented (avoidance) or moved when the shock is administered (escape).Testing: Vehicle or test compounds are administered S.C. 20 minutes before the test session. (Checking for disruption of cognition and attention) Table 3. Conditioned Avoidance Responding"}, "male C-57 mice": {"test_system": "male C-57 mice", "test": "Pre-pulse inhibition testing: reversal of PCP disruption of pre-pulse inhibition of acoustic startle", "assay_type": "in vivo", "conditions": "route not given (method: PO or SC); 20 minutes prior to PCP 5mg/kg IP"}}}
{"smiles": "O=C1CCCc2c1ccn2CCCCN1CCN(c2cccc(C(F)(F)F)c2)CC1", "note": "[NEO-392, 1-{4-[4-(3-Trifluoromethylphenyl)piperazin-1-yl]butyl}-1,5,6,7-tetrahydroindol-4-one]", "values": [{"measurement": "Conditioned Avoidance Responding: effect on avoidance (in words)", "setting": "mice", "value": "Significant reduction in avoidance"}, {"measurement": "Conditioned Avoidance Responding: effect on latency (in words)", "setting": "mice", "value": "Significant increase in latency"}, {"measurement": "PERMEABILITY", "setting": "Caco-2 cells", "value": "High"}]}
{"smiles": "COc1ccccc1N1CCN(CCCn2ccc3c2CCCC3=O)CC1", "note": "[NEO-370, 1-{3-[4-(2-Methoxyphenyl)piperazine-1-yl]propyl}-1,5,6,7-tetrahydroindol-4-one]", "values": [{"measurement": "Conditioned Avoidance Responding: effect on avoidance (in words)", "setting": "mice", "value": "Significant reduction in avoidance"}, {"measurement": "Conditioned Avoidance Responding: effect on latency (in words)", "setting": "mice", "value": "Significant increase in latency"}, {"measurement": "PERMEABILITY", "setting": "Caco-2 cells", "value": "High"}]}
{"smiles": "O=C1CCCc2c1ccn2CCCN1CCN(c2cccc(C(F)(F)F)c2)CC1", "note": "[NEO-356, 1-{3-[4-(3-Trifluoromethylphenyl)piperazin-1-yl]propyl}-1,5,6,7-tetrahydroindo1-4-one]", "values": [{"measurement": "Conditioned Avoidance Responding (overall effect / effect on escape or avoidance, in words)", "setting": "mice", "value": "No effect"}, {"measurement": "PERMEABILITY", "setting": "Caco-2 cells", "value": "High"}, {"measurement": "PCP Disruption of Pre-pulse Inhibition (result in words)", "setting": "male C-57 mice", "value": "No reversal"}]}
{"smiles": "O=C1CCCc2c1ccn2CCCN1CCN(c2ncccn2)CC1", "note": "[NEO-381, 1-{3-[4-(2-Pyrimidyl)piperazine-1-yl]propyl}-1,5,6,7-tetrahydroindol-4-one]", "values": [{"measurement": "Conditioned Avoidance Responding (overall effect / effect on escape or avoidance, in words)", "setting": "mice", "value": "No effect"}, {"measurement": "PERMEABILITY", "setting": "Caco-2 cells", "value": "High"}, {"measurement": "PCP Disruption of Pre-pulse Inhibition (result in words)", "setting": "male C-57 mice", "value": "No reversal"}]}
{"smiles": "O=C1CCCc2c1ccn2CCN1CCN(c2cccc(Cl)c2)CC1", "note": "[NEO-376, 1-{2-[4-(3-Chloro-phenyl)-piperazin-1-yl]-ethyl}-1,5,6,7-tetrahydro-indol-4-one]", "values": [{"measurement": "Conditioned Avoidance Responding (overall effect / effect on escape or avoidance, in words)", "setting": "mice", "value": "No effect on escape or avoidance"}, {"measurement": "Conditioned Avoidance Responding: effect on latency (in words)", "setting": "mice", "value": "significant increase in latency"}, {"measurement": "PERMEABILITY", "setting": "Caco-2 cells", "value": "High"}]}
{"smiles": "COc1ccccc1N1CCN(CCn2ccc3c2CCCC3=O)CC1", "note": "[NEO-377, 1-{2-[4-(2-Methoxyphenyl)-piperazin-1-yl]-ethyl}-1,5,6,7-tetrahydro-indol-4-one]", "values": [{"measurement": "Conditioned Avoidance Responding: effect on avoidance (in words)", "setting": "mice", "value": "Significant reduction in avoidance"}, {"measurement": "Conditioned Avoidance Responding: effect on latency (in words)", "setting": "mice", "value": "Significant increase in latency"}, {"measurement": "PERMEABILITY", "setting": "Caco-2 cells", "value": "High"}]}
{"smiles": "O=C1CCCc2c1ccn2CCCN1CCN(c2cccc(Cl)c2)CC1", "note": "[NEO-363, 1-{3-[4-(3-Chlorophenyl)piperazine-1-yl]propyl}-1,5,6,7-tetrahydroindol-4-one]", "values": [{"measurement": "Conditioned Avoidance Responding (overall effect / effect on escape or avoidance, in words)", "setting": "mice", "value": "No effect"}, {"measurement": "PERMEABILITY", "setting": "Caco-2 cells", "value": "High"}]}
{"smiles": "Cc1nc2n(c(=O)c1CCN1CCC(c3noc4cc(F)ccc34)CC1)CCCC2", "note": "[Risperidone, risperidone, reference compound]", "values": [{"measurement": "Conditioned Avoidance Responding: effect on avoidance (in words)", "setting": "mice", "value": "Significant reduction in avoidance"}, {"measurement": "Conditioned Avoidance Responding: effect on latency (in words)", "setting": "mice", "value": "Significant increase in latency"}]}
{"smiles": "O=C1CCCc2c1ccn2CCN1CCN(c2cccc(C(F)(F)F)c2)CC1", "note": "[NEO-359, 1-{2-[4-(3-Trifluoromethylphenyl)piperazin-1-yl]ethyl}-1,5,6,7-tetrahydroindol-4-one]", "values": [{"measurement": "Conditioned Avoidance Responding (overall effect / effect on escape or avoidance, in words)", "setting": "mice", "value": "No effect on escape or avoidance"}, {"measurement": "Conditioned Avoidance Responding: effect on latency (in words)", "setting": "mice", "value": "Significant decrease in latency"}, {"measurement": "PERMEABILITY", "setting": "Caco-2 cells", "value": "High"}, {"measurement": "PCP Disruption of Pre-pulse Inhibition (result in words)", "setting": "male C-57 mice", "value": "No reversal"}]}
{"smiles": "CC(C)NCC(O)COc1cccc2ccccc12", "note": "(stereo not drawn) [Propranolol, reference compound]", "values": [{"measurement": "PERMEABILITY", "setting": "Caco-2 cells", "value": "High"}]}
